Data published in US11504368B2, “2,6-diamino-3,4-dihydropyrimidin-4-one derivatives and use thereof in therapy” (THOMAS HELLEDAYS STIFTELSE FÖR MEDICINSK FORSKNING, priority 2018, dated 2022).
Counter-ions that a name gives are not always drawn.

Assays:
MTHFD2 = MTHFD2 (Homo sapiens (Human), UniProt P13995); experiment: Inhibition of MTHFD2 (NAD(P)H-Glo luminescence); format: biochemical; details: 3.4 nmol/L MTHFD2, 5 μmol/L folitixorin, 250 μmol/L NAD+; mean of at least 3 independent measurements
Sequence of MTHFD2 (P13995 36-350): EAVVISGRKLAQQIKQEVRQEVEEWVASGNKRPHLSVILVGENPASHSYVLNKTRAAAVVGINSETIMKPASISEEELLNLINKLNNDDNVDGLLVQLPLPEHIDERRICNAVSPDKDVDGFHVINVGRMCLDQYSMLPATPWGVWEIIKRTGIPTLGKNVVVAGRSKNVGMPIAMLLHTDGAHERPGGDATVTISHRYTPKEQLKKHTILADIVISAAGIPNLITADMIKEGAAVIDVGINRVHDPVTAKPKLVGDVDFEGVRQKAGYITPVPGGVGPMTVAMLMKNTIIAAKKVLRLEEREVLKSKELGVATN
Method: DMSO was used as negative control. The serial dilution in DMSO, from compound DMSO stock solution, was created by dispensing from a 384-well low dead volume microplate (LP-0200, Labcyte) and a 384-well polypropylene microplate 2.0 (PP-0200, Labcyte). A total of 2.5 μL MTHFD2 was preincubated with compound or DMSO for 10 min. The enzymatic reaction was initiated by adding 2.5 μL folitixorin (F680350, Toronto Research Chemicals). For background control, 5 μL buffer was added to the well. […] The final concentrations of all reagents in a total assay volume of 5 μL per well were 50 mmol/L Tris-HCl at pH 8.0, 100 mmol/L NaCl, 5 mmol/L MgCl2, 25 mmol/L Na3PO4 at pH 8.0, 0.005% (v/v) Tween-20, and 2 mmol/L 2-mercaptoethanol. After 15 min reaction time, 5 μL NAD(P)H-Glo detection reagent (G9061 or G9062, Promega) was dispensed in all wells and the plate was incubated for 60 min. Luminescence was measured on a plate reader (Envision, PerkinElmer or Sense, Hidex). The light signal produced is proportional to the amount of NAD(P)H in the sample. IC50 values were determined by fitting a four parameter sigmoidal curve model using XLfit (IDBS). Reported IC50 values are the mean of at least 3 independent measurements.

HL-60 cells = experiment: Cancer cell viability assay (HL-60, resazurin); format: cell-based; details: Homo sapiens, 96 h, mean of at least 3 independent measurements, read-out: HL60 cell proliferation inhibition EC50
Method: HL-60 cells (human promyelocytic leukemia cells) were seeded in a 384-well plate at a density of 2,000 cells per well in 50 μL induction medium and treated with vehicle (DMSO) or an 11-point concentration range with 3-fold dilution in concentration of compound. Each assay point was run in duplicate. Wells without cells but with DMSO were used as negative controls. The cells were left to proliferate over a period of 96 h, in an incubator at 37° C. and 5% CO2, followed by an addition of 10 μL […] resazurin sodium salt (199303, Sigma-Aldrich) dissolved in DPBS (14190, Gibco). After 4 h of incubation at 37° C. and 5% CO2, the fluorescent signal was measured using an excitation wavelength of 544 nm and an emission wavelength of 595 nm in a Hidex Sense plate reader. Cell plates were incubated in boxes with damp paper tissues to avoid evaporation. All additions, except compound and DMSO, were done using the Multidrop Combi (Thermo Fisher Scientific). DMSO and compounds were pre-dispensed with an Echo 550 Liquid handler (Labcyte) in black, clear bottom, TC-treated and sterile 384-well plates (3764, Corning). Growth medium consisted of RPMI 1640 GlutaMAX (61870, Gibco), 10% (v/v) FBS (10500, Gibco), and 1% (v/v) P/S (15070, Gibco). Induction medium consisted of RPMI 1640 GlutaMAX (61870, Gibco), 5% (v/v) FBS (10500, Gibco), and 1% (v/v) P/S (15070, Gibco). EC50 values were determined by fitting a four parameter sigmoidal curve model using XLfit (IDBS). Reported EC50 values are the mean of at least 3 independent measurements.

Nc1nc(N)c(NC(=O)Nc2ccc(C(=O)N[C@@H](CCC(=O)O)C(=O)O)nc2)c(=O)[nH]1 [Example 1, (2S)-2-[(5-{[(2,4-diamino-6-oxo-1,6-dihydropyrimidin-5-yl)carbamoyl]amino}pyridin-2-yl)formamido]pentanedioic acid; trifluoroacetic acid]
IC50 (MTHFD2): 24 nM
EC50 (HL-60 cells): 75 nM

Nc1nc(N)c(NC(=O)Nc2ccc(C(=O)N[C@@H](Cc3ccccc3)C(=O)O)nc2)c(=O)[nH]1 [Example 2, (2S)-2-[(5-{[(2,4-diamino-6-oxo-1,6-dihydropyrimidin-5-yl)carbamoyl]amino}pyridin-2-yl)formamido]-3-phenylpropanoic acid; trifluoroacetic acid]
IC50 (MTHFD2): 68 nM
EC50 (HL-60 cells): 10 nM

CC(C)[C@H](NC(=O)c1ccc(NC(=O)Nc2c(N)nc(N)[nH]c2=O)cn1)C(=O)O [Example 3, (2S)-2-[(5-{[(2,4-diamino-6-oxo-1,6-dihydropyrimidin-5-yl)carbamoyl]amino}pyridin-2-yl)formamido]-3-methylbutanoic acid; trifluoroacetic acid]
IC50 (MTHFD2): 19 nM
EC50 (HL-60 cells): 31 nM

Nc1nc(N)c(NC(=O)Nc2ccc(C(=O)N[C@@H](CCc3nnn[nH]3)C(=O)O)nc2)c(=O)[nH]1 [Example 4, (2S)-2-[(5-{[(2,4-diamino-6-oxo-1,6-dihydropyrimidin-5-yl)carbamoyl]amino}pyridin-2-yl)formamido]-4-(1H-1,2,3,4-tetrazol-5-yl)butanoic acid]
IC50 (MTHFD2): 12 nM
EC50 (HL-60 cells): 24 nM

Nc1nc(N)c(NC(=O)Nc2cnc(C(=O)N[C@@H](CCC(=O)O)C(=O)O)c(Cl)c2)c(=O)[nH]1 [Example 5, (2S)-2-[(3-chloro-5-{[(2,4-diamino-6-oxo-1,6-dihydropyrimidin-5 yl)carbamoyl]amino}pyridin-2-yl)formamido]pentanedioic acid]
IC50 (MTHFD2): 15 nM
EC50 (HL-60 cells): 93 nM

Nc1nc(N)c(NC(=O)Nc2cnc(C(=O)N[C@@H](CCC(=O)O)C(=O)O)c(F)c2)c(=O)[nH]1 [Example 6, (2S)-2-[(5-{[(2,4-diamino-6-oxo-1,6-dihydropyrimidin-5-yl)carbamoyl]amino}-3-fluoropyridin-2-yl)formamido]pentanedioic acid]
IC50 (MTHFD2): 10 nM
EC50 (HL-60 cells): 100 nM

Nc1nc(N)c(CC(=O)Nc2ccc(C(=O)N[C@@H](CCC(=O)O)C(=O)O)nc2)c(=O)[nH]1 [Example 7, (2S)-2-((5-[2-(2,4-diamino-6-oxo-1,6-dihydropyrimidin-5-yl)acetamido]pyridin-2-yl)formamido)pentanedioic acid hydrochloride]
IC50 (MTHFD2): 154 nM
EC50 (HL-60 cells): 17 nM

Nc1nc(N)c(CC(=O)Nc2ccc(C(=O)N[C@@H](Cc3ccccc3)C(=O)O)nc2)c(=O)[nH]1 [Example 8, (2S)-2-({5-[2-(2,4-diamino-6-oxo-1,6-dihydropyrimidin-5-yl)acetamido]pyridin-2-yl}formamido)-3-phenylpropanoic acid]
IC50 (MTHFD2): 312 nM
EC50 (HL-60 cells): 62 nM

Nc1nc(N)c(CC(=O)Nc2ccc(C(=O)N[C@@H](CCc3nnn[nH]3)C(=O)O)nc2)c(=O)[nH]1 [Example 9, (2S)-2-((5-[2-(2,4-diamino-6-oxo-1,6-dihydropyrimidin-5-yl)acetamido]pyridin-2-yl)formamido)-4-(1H-1,2,3,4-tetrazol-5-yl)butanoic acid]
IC50 (MTHFD2): 53 nM
EC50 (HL-60 cells): 35 nM

Nc1nc(N)c(CC(=O)Nc2cnc(C(=O)N[C@@H](CCC(=O)O)C(=O)O)c(F)c2)c(=O)[nH]1 [Example 10, (2S)-2-((5-[2-(2,4-diamino-6-oxo-1,6-dihydropyrimidin-5-yl)acetamido]-3-fluoropyridin-2-yl)formamido)pentanedioic acid]
EC50 (HL-60 cells): 14 nM

Nc1nc(N)c(NC(=O)Nc2ccc(C(=O)N[C@@H](CCc3ccccc3)C(=O)O)nc2)c(=O)[nH]1 [Example 14, (2S)-2-[(5-{[(2,4-diamino-6-oxo-1,6-dihydropyrimidin-5-yl)carbamoyl]amino}pyridin-2-yl)formamido]-4-phenylbutanoic acid]
EC50 (HL-60 cells): 187 nM
